Experimental data from ChEMBL document CHEMBL1123274, “Azasteroids: structure-activity relationships for inhibition of 5 alpha-reductase and of androgen receptor binding” (J Med Chem, 1986).

What was measured:
Androgen receptor = molecular target: T1, Androgen receptor (Rattus norvegicus, UniProt P15207); test: In vitro antagonist activity against rat prostatic androgen receptor (AR)
T1 sequence (P15207 whole entry): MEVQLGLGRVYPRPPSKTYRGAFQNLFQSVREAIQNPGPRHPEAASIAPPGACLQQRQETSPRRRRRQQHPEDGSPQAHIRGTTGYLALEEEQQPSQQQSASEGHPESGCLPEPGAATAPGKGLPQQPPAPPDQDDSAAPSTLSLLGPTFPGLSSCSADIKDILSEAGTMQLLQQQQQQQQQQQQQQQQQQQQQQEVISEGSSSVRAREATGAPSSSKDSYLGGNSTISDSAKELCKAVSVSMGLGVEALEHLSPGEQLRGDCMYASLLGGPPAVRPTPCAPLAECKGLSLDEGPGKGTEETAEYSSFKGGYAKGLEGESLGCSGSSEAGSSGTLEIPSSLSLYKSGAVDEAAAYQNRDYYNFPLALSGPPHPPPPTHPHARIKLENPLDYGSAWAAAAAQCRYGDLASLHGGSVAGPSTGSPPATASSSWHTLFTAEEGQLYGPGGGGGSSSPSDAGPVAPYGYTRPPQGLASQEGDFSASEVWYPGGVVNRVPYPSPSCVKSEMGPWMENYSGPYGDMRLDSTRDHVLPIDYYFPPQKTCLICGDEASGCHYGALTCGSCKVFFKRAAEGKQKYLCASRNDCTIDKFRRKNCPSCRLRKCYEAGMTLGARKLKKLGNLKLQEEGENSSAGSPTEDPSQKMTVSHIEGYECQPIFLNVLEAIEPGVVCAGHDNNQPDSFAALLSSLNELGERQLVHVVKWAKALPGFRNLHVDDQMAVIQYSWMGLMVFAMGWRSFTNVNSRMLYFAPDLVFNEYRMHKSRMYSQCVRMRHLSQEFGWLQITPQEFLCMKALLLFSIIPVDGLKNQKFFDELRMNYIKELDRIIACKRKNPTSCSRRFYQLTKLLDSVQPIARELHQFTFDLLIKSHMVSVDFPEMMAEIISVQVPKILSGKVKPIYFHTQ

[1] = molecular target: T2, Steroid 5-alpha-reductase (Rattus norvegicus, UniProt P24008+P31214); test: In vitro inhibitory activity against rat prostatic steroid 5-alpha-reductase; format: protein assay
T2 sequence (P24008 whole entry): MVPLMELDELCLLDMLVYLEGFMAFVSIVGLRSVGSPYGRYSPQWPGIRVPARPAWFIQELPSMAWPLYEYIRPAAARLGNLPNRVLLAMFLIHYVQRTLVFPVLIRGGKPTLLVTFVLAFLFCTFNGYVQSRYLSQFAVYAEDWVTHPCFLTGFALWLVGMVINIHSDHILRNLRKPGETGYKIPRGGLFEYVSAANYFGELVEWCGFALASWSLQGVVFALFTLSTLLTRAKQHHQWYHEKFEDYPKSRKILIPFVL
T2 sequence (P31214 whole entry): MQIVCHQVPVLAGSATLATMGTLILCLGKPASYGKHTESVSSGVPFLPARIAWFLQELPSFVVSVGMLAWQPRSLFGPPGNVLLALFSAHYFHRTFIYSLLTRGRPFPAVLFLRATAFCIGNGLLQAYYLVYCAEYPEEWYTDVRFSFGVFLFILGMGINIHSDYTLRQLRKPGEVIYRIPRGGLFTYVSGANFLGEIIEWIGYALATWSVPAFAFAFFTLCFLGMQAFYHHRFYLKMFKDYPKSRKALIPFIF

Compound	IC50 (Androgen receptor) [nM]	IC50 [1] [nM]
CNC(=O)[C@H]1CC[C@H]2[C@@H]3CC=C4N(C)C(=O)CC[C@]4(C)[C@H]3CC[C@]12C	400	140
CCCCCCCCN(CCCCCCCC)C(=O)[C@H]1CC[C@H]2[C@@H]3CCC4N(C)C(=O)CC[C@]4(C)[C@H]3CC[C@]12C (stereo partly specified)	46000	33
CC(=O)N[C@H]1CC[C@H]2[C@@H]3CCC4N(C)C(=O)CC[C@]4(C)[C@H]3CC[C@]12C (stereo partly specified)	1400	270
CCC(C)C(=O)[C@H]1CC[C@H]2[C@@H]3CCC4N(C)C(=O)CC[C@]4(C)[C@H]3CC[C@]12C (stereo partly specified)	420	1.9
CN1C(=O)CC[C@@]2(C)C1CC[C@H]1[C@@H]3CC[C@H](C(=O)N4CCOCC4)[C@@]3(C)CC[C@@H]12 (stereo partly specified)	10000	27
CCC(C)C(=O)[C@H]1CC[C@H]2[C@@H]3CCC4NC(=O)C=C[C@]4(C)[C@H]3CC[C@]12C (stereo partly specified)	> 100000	50
CC(O)[C@H]1[C@H](C)C[C@H]2[C@@H]3CCC4N(C)C(=O)CC[C@]4(C)[C@H]3CC[C@@]21C (stereo partly specified)	170	2.8
CC(CO)[C@H]1CC[C@H]2[C@@H]3CCC4N(C)C(=O)CC[C@]4(C)[C@H]3CC[C@]12C (stereo partly specified)	860	3.8
CCN(CC)C(=O)[C@H]1CC[C@H]2[C@@H]3CC[C@H]4N(NC=O)C(=O)CC[C@]4(C)[C@H]3CC[C@]12C	> 10000	400
CCN(CC)C(=O)[C@H]1CC[C@H]2[C@@H]3CC=C4N(N)C(=O)CC[C@]4(C)[C@H]3CC[C@]12C	5400	36
CC(=O)[C@H]1[C@@H](C)C[C@H]2[C@@H]3CCC4N(C)C(=O)CC[C@]4(C)[C@H]3CC[C@@]21C (stereo partly specified)	8600	16
CN1C(=O)C=C[C@@]2(C)C1CC[C@@H]1[C@@H]2CC[C@@]2(C)[C@H]1CC[C@@]21CCCO1 (stereo partly specified)	110	430
CCN(CC)C(=O)C[C@H]1CC[C@H]2[C@@H]3CCC4N(C)C(=O)CC[C@]4(C)[C@H]3CC[C@]12C (stereo partly specified)	560	7.9
C[C@]12C=CC(=O)NC1CC[C@@H]1[C@@H]2CC[C@@]2(C)[C@H]1CC[C@@]21CCCO1 (stereo partly specified)	1500	430
C[C@]12CCC(=O)NC1CC[C@@H]1[C@@H]2CC[C@@]2(C)[C@H]1CC[C@@]21CCCO1 (stereo partly specified)	2500	93
CCN(CC)C(=O)[C@H]1CC[C@H]2[C@@H]3CC[C@H]4N(C)C(=O)[C@@H](C)C[C@]4(C)[C@H]3CC[C@]12C	6100	20
CCN(CC)C(=O)[C@H]1CC[C@H]2[C@@H]3CC[C@H]4N(C)C(=O)C[C@H](C#N)[C@]4(C)[C@H]3CC[C@]12C	> 10000	> 1000
COC(=O)C(C)[C@H]1CC[C@H]2[C@@H]3CCC4N(C)C(=O)CC[C@]4(C)[C@H]3CC[C@]12C (stereo partly specified)	960	22
CCN(CC)C(=O)[C@H]1CC[C@H]2[C@@H]3CC=C4N(O)C(=O)CC[C@]4(C)[C@H]3CC[C@]12C	190	220
CC(=O)N[C@@H]1CC[C@H]2[C@@H]3CCC4N(C)C(=O)CC[C@]4(C)[C@H]3CC[C@]12C (stereo partly specified)	40000	58
C[C@H]1CC2N(C)C(=O)CC[C@]2(C)[C@H]2CC[C@@]3(C)[C@@H](CC[C@@]34CCCO4)[C@H]12 (stereo partly specified)	500	4.6
CCN(CC)C(=O)[C@H]1CC[C@H]2[C@@H]3CCC4N(C)C(=O)C=C(C#N)[C@]4(C)[C@H]3CC[C@]12C (stereo partly specified)	> 10000	> 1000

Compound	IC50 (Androgen receptor) [nM]	IC50 [1] [nM]
CN1C(=O)C=C[C@@]2(C)C1CC[C@H]1[C@@H]3CC[C@H](C(=O)NC(C)(C)C)[C@@]3(C)CC[C@@H]12 (stereo partly specified)	150	13
CC(=O)[C@H]1[C@H](C)C[C@H]2[C@@H]3CCC4N(C)C(=O)CC[C@]4(C)[C@H]3CC[C@@]21C (stereo partly specified)	290	3.4
CCN(CC)C(=O)C(C)[C@H]1CC[C@H]2[C@@H]3CCC4N(C)C(=O)CC[C@]4(C)[C@H]3CC[C@]12C (stereo partly specified)	48000	13
CCN(CC)C(=O)[C@H]1CC[C@H]2[C@@H]3CC[C@@H]4NC(=O)CC[C@]4(C)[C@H]3CC[C@]12C (stereo in doubt; 79)	> 10000	> 1000
C[C@]12CC[C@H]3[C@@H](CCC4NC(=O)CC[C@@]43C)[C@@H]1CC[C@@H]2C(=O)[O-].[K+] (stereo partly specified)	> 100000	25
CC(C)(C)NC(=O)[C@H]1CC[C@H]2[C@@H]3CCC4NC(=O)CC[C@]4(C)[C@H]3CC[C@]12C (stereo partly specified)	> 100000	6.3
CC(C)N(C(=O)[C@H]1CC[C@H]2[C@@H]3CC[C@H]4N(C)C(=O)CC[C@]4(C)[C@H]3CC[C@]12C)C(C)C	14000	3.5
CCN(CC)C(=O)[C@H]1CC[C@H]2[C@@H]3CC[C@H]4NC(=O)C=C[C@]4(C)[C@H]3CC[C@]12C	> 100000	140
COC(CNC(=O)[C@H]1CC[C@H]2[C@@H]3CCC4N(C)C(=O)CC[C@]4(C)[C@H]3CC[C@]12C)OC (stereo partly specified)	790	4.6
CCN(CC)C(=O)[C@H]1CC[C@H]2[C@@H]3CC[C@H]4N(C)C(=O)C[C@H](C)[C@]4(C)[C@H]3CC[C@]12C	16000	86
CCN(CC)C(=O)[C@H]1CC[C@H]2[C@@H]3CC[C@H]4N(C)C(=O)C(=O)C[C@]4(C)[C@H]3CC[C@]12C	50000	340
CC(C)N(C(=O)[C@H]1CC[C@H]2[C@@H]3CC[C@@H]4N(C)C(=O)CC[C@]4(C)[C@H]3CC[C@]12C)C(C)C	> 10000	1000
CCCCCCCCCCCCCCCCCCNC(=O)[C@H]1CC[C@H]2[C@@H]3CCC4N(C)C(=O)CC[C@]4(C)[C@H]3CC[C@]12C (stereo partly specified)	17000	20
CC(C(=O)[O-])[C@H]1CC[C@H]2[C@@H]3CC=C4N(C)C(=O)CC[C@]4(C)[C@H]3CC[C@]12C.[Na+] (stereo partly specified)	25000	13
CN1C(=O)CC[C@@]2(C)C1CC[C@@H]1[C@@H]2CC[C@@]2(C)[C@H]1CC[C@@]21CCC(=O)O1 (stereo partly specified)	89	40
CN1C(=O)CC[C@@]2(C)C1CC[C@H]1[C@@H]3CC[C@H](C(=O)NCCO)[C@@]3(C)CC[C@@H]12 (stereo partly specified)	1700	93
CCCCCCCCNC(=O)[C@H]1CC[C@H]2[C@@H]3CCC4NC(=O)CC[C@]4(C)[C@H]3CC[C@]12C (stereo partly specified)	5200	0.13
CCC(C)C(=O)[C@H]1CC[C@H]2[C@@H]3CCC4N(C)C(=O)C=C[C@]4(C)[C@H]3CC[C@]12C (stereo partly specified)	64	120
CC(CCC(=O)[O-])[C@H]1CC[C@H]2[C@@H]3CCC4N(C)C(=O)CC[C@]4(C)[C@H]3CC[C@]12C.[Na+] (stereo partly specified)	21000	3.6
CNC(=O)[C@H]1CC[C@H]2[C@@H]3CCC4N(C)C(=O)CC[C@]4(C)[C@H]3CC[C@]12C (stereo partly specified)	1100	38
CCN(CC)C(=O)[C@H]1CC[C@H]2[C@@H]3CC[C@H]4N(C)C(=O)[C@@H]5C[C@@H]5[C@]4(C)[C@H]3CC[C@]12C	2700	20
